From US20260007601A1, “IONIZABLE CATIONIC LIPID COMPOUND AND COMPOSITION FOR DELIVERING NUCLEIC ACID AND USE THEREOF” (BEIJING YOUCAREKECHUANG PHARMACEUTICAL TECHNOLOGY CO., LTD., priority 2023, published 2026)
Several values for one entry are separate records, joined by “and”; a condition that tells them apart may be missing. Equal entries are not always repeated.

Experiments:
[1] = test system: 293T cells; assay: Cell survival rate assay (CCK-8); format: cell-based
Summary of the method: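 293T cells seeded at 10,000 per well and grown overnight, then exposed for 24 h to LNPs (cationic/neutral/structured/PEG lipids 49:10:39.5:1.5) carrying 1.5 μg Fluc-mRNA, or Lipofectamine 3000. Viability read by CCK-8, 1 h incubation, absorbance at 450 nm.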

[2] = Particle size and polydispersity index (PDI) of nanolipid particles, dynamic light scattering; format: physicochemical; conditions: LNP formulation prepared from the named cationic lipid, 25° C
Description: The particle size and polydispersity index (PDI) were determined by dynamic light scattering method using a Malvern laser particle size analyzer. 10 μL of liposome solution was diluted to 1 mL with RNase-free deionized water and added to a sample pool. Each sample was measured three times. The measurement conditions were: 90° scattering angle, 25° C.

[3] = test system: 293T cells; assay: Fluorescence detection of Fluc-mRNA (cell transfection efficiency of LNP formulations); format: cell-based
Summary of the method: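 293T cells at 10,000 per well, adhered overnight, then given LNPs carrying 0.3 μg Fluc-mRNA (cationic:neutral:structured:polymer-conjugated lipid 49:10:39.5:1.5 molar). After 24 h, luciferase signal read with luciferase kit reagents on an IVIS imaging system as transfection efficiency.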

[4] = test system: female BALB/C mice; assay: Mouse in vivo imaging of Fluc-mRNA LNP formulations; set-up: average radiation intensity (mRNA expression): unit not given here; conditions: for average radiation intensity (mRNA expression): 10 μg Fluc-mRNA LNP intramuscularly
Summary of the method: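 Female BALB/C mice (4–6 weeks, 17–19 g) received LNP carrying 10 μg Fluc-mRNA intramuscularly. Imaging substrate given intraperitoneally at 6 h, 24 h, 48 h and 7 d; after 5 min free movement, average radiance read by IVIS Spectrum imaging.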

With `CCCCCCCCC(CCCCCCCC)COC(=O)CCCCCN(CCCCCC(=O)OCC(CCCCCCCC)CCCCCCCC)CCN(C)CCO` [YK-209, bis(2-octyldecyl)-6,6′-((2-(2-hydroxyethyl(methyl)amino)ethyl)azadialkyl)dihexanoate] the Cell survival rate ([1]; LNP containing 1.5 μg Fluc-mRNA, 24 hours, CCK-8) was 76.69%, the “cell survival rate higher (cytotoxicity reduced) compared with YK-221” value ([1]; difference of rates) was 55% and 55.74% and the “cell survival rate higher (toxicity lower) than that of YK-204” value ([1]; difference of rates) was 34.12%. For the same molecule, the “cell survival rate higher (toxicity lower) than that of YK-225” value ([1]; difference of rates) was 30% and 33.28%, the “cell survival rate higher than that of ALC-0315” value ([1]; difference of rates) was 26.73% and the “cell survival rate higher than that of HHMA” value ([1]; difference of rates) was 11.13%. The “cell survival rate higher than that of Lipofectamine 3000” value ([1]; difference of rates) was 53.64%, the “cell survival rate higher than that of SM-102” value ([1]; difference of rates) was 8.14% and the “cell survival rate higher than that of YK-203” value ([1]; difference of rates) was 41.13%. The “cell survival rate higher than that of YK-205” value ([1]; difference of rates) was 17.77%, the “cell survival rate higher than that of YK-208” value ([1]; difference of rates) was 30.01% and the “cell survival rate higher than that of YK-210” value ([1]; difference of rates) was 38.31%. The “cell survival rate higher than that of YK-211” value ([1]; difference of rates) was 24.39%, the “cell survival rate higher than that of YK-212” value ([1]; difference of rates) was 41.43% and the “cell survival rate higher than that of YK-213” value ([1]; difference of rates) was 35.25%. The “cell survival rate higher than that of YK-214” value ([1]; difference of rates) was 51.11% and 50%, the “cell survival rate higher than that of YK-215” value ([1]; difference of rates) was 32.10% and the “cell survival rate higher than that of YK-216” value ([1]; difference of rates) was 30.89%. For the same molecule, the “cell survival rate higher than that of YK-217” value ([1]; difference of rates) was 34.42%, the “cell survival rate higher than that of YK-219” value ([1]; difference of rates) was 18.08% and the “cell survival rate higher than that of YK-220” value ([1]; difference of rates) was 17.70%. The “cell survival rate higher than that of YK-222” value ([1]; difference of rates) was 42.94%, the “cell survival rate higher than that of YK-223” value ([1]; difference of rates) was 40.05% and the “cell survival rate higher than that of YK-224” value ([1]; difference of rates) was 53.22%. The “cell survival rate higher than that of YK-226” value ([1]; difference of rates) was 48.79%, the “cell survival rate higher than that of compound 21” value ([1]; difference of rates) was 7.67% and the “cell survival rate higher than that of compound 23” value ([1]; difference of rates) was 6.59%. The PDI [2] was 26.6%, the Particle size [2] was 226 nm and the “RLU / cell transfection efficiency, times that of ALC-0315” value ([3]; Fluc-mRNA LNP) was 12.51 times. The “RLU / cell transfection efficiency, times that of HHMA” value ([3]; Fluc-mRNA LNP) was 12.79 times, the “RLU / cell transfection efficiency, times that of Lipofectamine 3000” value ([3]; Fluc-mRNA LNP) was 22.36 times and the “RLU / cell transfection efficiency, times that of YK-009” value ([3]; Fluc-mRNA LNP) was 5.24 times. The “RLU / cell transfection efficiency, times that of compound 21” value ([3]; Fluc-mRNA LNP) was 18.90 times, the “RLU / cell transfection efficiency, times that of compound 23” value ([3]; Fluc-mRNA LNP) was 20.17 times and the “cell transfection efficiency, times that of YK-223” value ([3]; Fluc-mRNA LNP) was 280.74 times. The “cell transfection efficiency, times that of YK-224” value ([3]; Fluc-mRNA LNP) was 239.25 times, the “cell transfection efficiency, times that of YK-226” value ([3]; Fluc-mRNA LNP) was 365.22 times and the “fluorescence absorption value / cell transfection efficiency, times that of YK-203” value ([3]; Fluc-mRNA LNP) was 5.44 times. The “fluorescence absorption value / cell transfection efficiency, times that of YK-204” value ([3]; Fluc-mRNA LNP) was 57 times and 57.85 times, the “fluorescence absorption value / cell transfection efficiency, times that of YK-205” value ([3]; Fluc-mRNA LNP) was 20.46 times and the “fluorescence absorption value / cell transfection efficiency, times that of YK-208” value ([3]; Fluc-mRNA LNP) was 5.46 times. For the same molecule, the “fluorescence absorption value / cell transfection efficiency, times that of YK-210” value ([3]; Fluc-mRNA LNP) was 4.55 times, the “fluorescence absorption value / cell transfection efficiency, times that of YK-211” value ([3]; Fluc-mRNA LNP) was 15.37 times and the “fluorescence absorption value / cell transfection efficiency, times that of YK-212” value ([3]; Fluc-mRNA LNP) was 5.39 times. The “fluorescence absorption value / cell transfection efficiency, times that of YK-213” value ([3]; Fluc-mRNA LNP) was 15.43 times, the “fluorescence absorption value / cell transfection efficiency, times that of YK-214” value ([3]; Fluc-mRNA LNP) was 4.60 times and the “fluorescence absorption value / cell transfection efficiency, times that of YK-215” value ([3]; Fluc-mRNA LNP) was 21.46 times. For the same molecule, the “fluorescence absorption value / cell transfection efficiency, times that of YK-216” value ([3]; Fluc-mRNA LNP) was 9.24 times, the “fluorescence absorption value / cell transfection efficiency, times that of YK-217” value ([3]; Fluc-mRNA LNP) was 293.09 times and the “fluorescence absorption value / cell transfection efficiency, times that of YK-218” value ([3]; Fluc-mRNA LNP) was 34.69 times. The “fluorescence absorption value / cell transfection efficiency, times that of YK-219” value ([3]; Fluc-mRNA LNP) was 13.98 times, the “fluorescence absorption value / cell transfection efficiency, times that of YK-220” value ([3]; Fluc-mRNA LNP) was 97.32 times and the “fluorescence absorption value, times that of YK-222” value ([3]; Fluc-mRNA LNP) was 34.73 times. For the same molecule, the “Multiples of values that equivalent to YK-209” value ([3]; RLU of YK-209 / RLU of the named lipid) was 1.00, the “average radiation intensity, times that of ALC-0315” value ([4]; 6 h) was 3.00 times and the “average radiation intensity, times that of HHMA” value ([4]; 6 h) was 3.95 times. The “average radiation intensity, times that of SM-102” value ([4]; 6 h) was 3.72 times, the “average radiation intensity, times that of compound 21” value ([4]; 6 h) was 4.20 times and the “average radiation intensity, times that of compound 23” value ([4]; 6 h) was 4.25 times. The “mRNA expression level, times that of YK-204” value ([4]; 6 h) was 71.62 times, the “mRNA expression level, times that of YK-223” value ([4]; 6 h) was 243.77 times and the “average radiation intensity (mRNA expression)” value ([4]; 6 h) was 2524250. For the same molecule, the “expression level, times that of YK-215” value ([4]; 6 hours) was 49.92 times, the “expression level, times that of YK-217” value ([4]; 6 hours) was 102.67 times and the “average radiation intensity, times that of ALC-0315” value ([4]; 24 h) was 10.25 times. For the same molecule, the “average radiation intensity, times that of HHMA” value ([4]; 24 h) was 17.05 times, the “average radiation intensity, times that of SM-102” value ([4]; 24 h) was 16.14 times and the “average radiation intensity, times that of compound 21” value ([4]; 24 h) was 17.31 times. The “average radiation intensity, times that of compound 23” value ([4]; 24 h) was 16.86 times, the “mRNA expression level, times that of YK-204” value ([4]; 24 h) was 357.40 times and the “mRNA expression level, times that of YK-223” value ([4]; 24 h) was 1046.60 times. The “average radiation intensity (mRNA expression)” value ([4]; 24 h) was 1869220, the “expression level, times that of YK-215” value ([4]; 24 hours) was 274.28 times and the “expression level, times that of YK-217” value ([4]; 24 hours) was 705.37 times. The “average radiation intensity, times that of ALC-0315” value ([4]; 48 h) was 16.50 times, the “average radiation intensity, times that of HHMA” value ([4]; 48 h) was 21.36 times and the “average radiation intensity, times that of SM-102” value ([4]; 48 h) was 20.59 times. For the same molecule, the “average radiation intensity, times that of compound 21” value ([4]; 48 h) was 20.95 times, the “average radiation intensity, times that of compound 23” value ([4]; 48 h) was 19.61 times and the “mRNA expression level, times that of YK-204” value ([4]; 48 h) was 257.82 times. For the same molecule, the “mRNA expression level, times that of YK-223” value ([4]; 48 h) was 927.85 times, the “average radiation intensity (mRNA expression)” value ([4]; 48 h) was 629080 and the “expression level, times that of YK-215” value ([4]; 48 hours) was 172.82 times. The “expression level, times that of YK-217” value ([4]; 48 hours) was 614.34 times, the “average radiation intensity, times that of ALC-0315” value ([4]; 7 d) was 4.00 times and the “average radiation intensity, times that of HHMA” value ([4]; 7 d) was 4.96 times. The “average radiation intensity, times that of SM-102” value ([4]; 7 d) was 4.47 times, the “average radiation intensity, times that of compound 21” value ([4]; 7 d) was 4.32 times and the “average radiation intensity, times that of compound 23” value ([4]; 7 d) was 4.52 times. The “expression level, times that of YK-215” value ([4]; 7 d) was 25.84 times, the “expression level, times that of YK-217” value ([4]; 7 d) was 50.40 times and the “mRNA expression level, times that of YK-204” value ([4]; 7 d) was 34.96 times. For the same molecule, the “mRNA expression level, times that of YK-223” value ([4]; 7 d) was 59.91 times and the “average radiation intensity (mRNA expression)” value ([4]; 7 d) was 26361.
